Assays:
[1] = tested on: K562 human leukemia cells; experiment: Western blot analysis of caspase target proteins Lamin B and RB; format: cell-based; settings: 1% iso-C15 (60 μg/ml)
Protocol: (§1) For Western blot assay, each cell pellet collected from 1% iso-C15 or control treated cultures was lysed in 150 μl lysis buffer with 0.5% NP-40, 0.5% deoxycholic acid and 1 mM PMSF. The cell lysates were mixed with equal volume 2× Laemmli buffer and boiled for 5 min before loaded into gel wells. Proteins were resolved in an 8% SDS-PAGE gel and transferred to nitrocellulose filter membrane. The filters were blocked with PBS-T (PBS with 0.1% Tween 20) containing 5% nonfat dry milk (Bio-Rad, Richmond, Calif.) for 1 hr and then incubated for 1 hr with proper dilution of one primary antibody in PBS-T containing 2% nonfat dry milk. The filters then were washed in PBS-T 5 min for 6 times and incubated with a 1:8000 dilution of HRP secondary antibody in PBS-T with 2% nonfat dry milk for 1 hr. After 6 washes in PBS-T, immune complexes were visualized on film using the ECL nonradioactive detection system (Amersham, Arlington Heights, Ill.). After detected with one primary antibody, the filter was striped with 0.1 mM Tris pH 7.5 and 0.05 mM β-metacapenanol at 50° C. for 30 min. The filters were washed in 300 ml PBS-T buffer for 10 min twice before blocking with PBS-T with 5% nonfat dry milk. The membranes were then reprobed with monoclonal mouse anti-human β-actin to determine the equal loading of protein for each well.
(§2) The cleavages of Lamin B, a caspase target protein, in apoptotic SNU-423 human hepatocellular carcinoma cells and K562 human leukemia cells were shown in FIGS. 14 and 15, respectively. The cells were treated with 1% control solution and 1% iso-C15 for the length of time indicated. Cell lysates were separated by SDS-PAGE. Lamin B was detected by immunoblotting with a monoclonal antibody. […] The Western blot analysis of RB protein in SNU-423 and K562 cells were shown in FIGS. 16 and 17, respectively.

[2] = tested on: SNU-423 human hepatocellular carcinoma cells; experiment: as above; format: cell-based; settings: 1% iso-C15 (60 μg/ml)
Protocol: as §1, §2

[3] = tested on: K-562 leukemia cells; experiment: In situ cell death detection, POD; format: cell-based, human; settings: 60 μg/ml, 2 and 4 hours
Excerpt: (§3) In Situ Cell Death Detection Kit, POD (Mannheim Boehringer GmbH) was used to detect the individual apoptotic cells. Cleavage of genomic DNA during apoptosis may yield double-stranded, low molecular weight DNA fragments as well as single strand breaks in high molecular weight DNA. Those DNA strand breaks can be identified by labeling free 3′-OH termini with modified nucleotides in an enzymatic reaction. In this kit terminal deoxynucleotidyl transferase (TdT) is used to label free 3′-OH ends in genomic DNA with fluorescein-dUTP. The incorporated fluorescein is visualized under fluorescence microscope directly. The incorporated fluorescein can also bind to anti-fluorescein antibody POD and be detected by substrate reaction. Stained cells can be analyzed under light microscope.
(§4) Four human tumor cell lines, K-562 human leukemia, SNU-1 human gastric carcinoma cell lines, MCF-7 human breast adenocarcinoma and H1688 human small cell lung carcinoma cell lines, as well as Human PBLs were treated with iso-C15 (60 μg/ml).
(§5) H1688, K-562 and DU145 human cancer cells and normal human PBLs were added with POD and incubated 30 min at 37° C., washed three times with PBS, then reacted with substrate AEC and incubated for 10 min at room temperature. The cells were analyzed under light microscope. […] It is evidenced that iso-C15 induces apoptosis of cancer cells but not normal human cells.

[4] = tested on: H1688 cancer cells; experiment: In situ cell death detection, POD; format: cell-based, human; settings: 60 μg/ml, 8 hours
Excerpt: as §3, §4, §5

[5] = Determination of LD50; format: in vivo
Protocol: 13-methyltetradecanoic acid (iso-C15) purchased from Sigma (St. Louis, Mo.) was prepared by dissolving in NaOH solution and then in 0.35% Tween 80 with pH7.5.
ICR mice weighing 20.5–22.5 g of both sexes were treated with iso-C15 i.p. qd×3 in test groups and with solvent of same dose as in a control group. The doses ranged from 10 to 800 mg/kg of iso-C15 and two mice were included in each dose group (10 mg/kg, 20 mg/kg, 40 mg/kg, 80 mg/kg, 160 mg/kg, and 800 mg/kg). The general condition of these mice were monitored daily for seven days.

[6] = tested on: human prostate carcinoma DU145; experiment: Orthotopic nude mice model of human prostate carcinoma DU145; format: in vivo; settings: for Mean tumor weight / TIR (tumor inhibition rate): oral once a day
Protocol: 13-methyltetradecanoic acid (iso-C15) was chemically synthesized in the inventor's laboratory, as described in Example 5, infra, (purity of 99.8%) was prepared by dissolving in NaOH solution and then in 0.35% Tween 80 with pH7.5.
Total of 24 male athymic BALB/c nude mice between 4 and 5 weeks of age were bred and maintained in specific pathogen free condition.
Human prostate carcinoma DU145 tumor was implanted and maintained subcutaneously in the flank of athymic nude mice. Prior to orthotopic implantation, the tumor was harvested in log phase. The peripheral tumor tissue was collected and minced to small pieces of one cubic millimeter each.
The mice were anesthetized for surgical orthotopic implantation. A small incision was made along the midline of the lower abdomen. After proper exposure of the bladder and prostate, the capsule of the prostate was opened and three pieces of DU145 tumor fragments were inserted into the capsule. The capsule was then closed using 8-0 suture, and the abdomen was closed using a 6-0 surgical suture.
The mice bearing orthotopic DU145 were randomly divided into control and test groups of eight mice each at the second day after tumor implantation. The iso-C15 prepared above at doses 35 and 70 mg/kg and PBS were administered by gavage once a day in low dose and high dose test groups and control group, respectively, for […].
All the mice were sacrificed by CO2 inhalation at day-40 after the start of treatment. The weights of primary tumors and bodies were measured. Tissue samples of the primary tumors were processed through standard procedures of hematoxylin and eosin staining for microscopic examination.
The tumor inhibition rates (TIR) were determined by comparing the mean tumor weight of the test groups (T) with that of the control group (C) and expressed as a (C)−T)/C percentage, and were analyzed by Student's test for statistical significance.

## CC(C)CCCCCCCCCCCC(=O)O [iso-C15, 13-methyltetradecanoic acid]
[1]
  Lamin B cleavage: cleaved 45 kDa products
  RB hypophosphorylation and cleavage: induced the change of hyperphosphorylated RB (pRB120/hyper) to hypophosphorylated form (pRB115/hypo)
[2]
  Lamin B cleavage: cleaved 45 kDa and 32 kDa products
  RB hypophosphorylation and cleavage: induced the change of hyperphosphorylated RB (pRB120/hyper) to hypophosphorylated form (pRB115/hypo)
[3]
  apoptotic cells stained, POD: some cells started apoptosis (stained red) 2 hours after treatment
[4]
  apoptotic cells stained, POD: apoptotic H1688 cancer cells (stained red) were found
[5]; both sexes, ICR, mouse, in vivo, ip
  LD50 at 7 days: > 800 mg/kg
[5]; i.p. qd×3, dose up to 800 mg/kg, monitored seven days
  mortality: No mice died
[6]; 35 mg/kg
  Mean tumor weight: 493.25 mg
  TIR (tumor inhibition rate): 54.8%
[6]; 70 mg/kg
  Mean tumor weight: 168.00 mg
  TIR (tumor inhibition rate): 84.6%
[6]; 35 and 70 mg/kg oral
  signs of toxicity (body weight curve, histology slides): no signs of toxicity
[6]; high dose, 70 mg/kg, eight mice per group
  mice in which the implanted tumor did not grow: four
